Several values for one entry are separate records, joined by “and”; a condition that tells them apart may be missing. Equal entries are not always repeated. Where two headings read alike, the source gives them in different places.
Tests used:
Mtb Erdman [1] = experiment: Broth microdilution MIC (Alamar Blue endpoint), with and without 4% huSA (serum-shift assay)
Mtb Erdman [2] = experiment: Semi-quantitative MBC (sqMBC) assay; type: cell-based, Mycobacterium tuberculosis; details: M. tuberculosis Erdman; for sqMBC: 10 d incubation, 99% (2-log10) CFU reduction of inoculum; for sqMBC + huSA: with 4% huSA
Mtb = system: Mtb; set-up: method as in PMID 34370580; details: C3HeB/FeJ mice, 8 weeks (5 of 7 days per week), 5 and 20 mg/kg QD; cited from earlier work
[3] = system: non-replicating Mtb in rabbit caseum; set-up: method as in PMID 34370580; details: similarly reported previously; cited from earlier work
[4] = C3HeB/FeJ, mouse, in vivo, 1 h
Mtb Erdman [5] = experiment: Efficacy in spleens of Mtb Erdman-infected C3HeB/FeJ mice (CFU, kill rates); type: in vivo, Mycobacterium tuberculosis; details: for kill rate k[0-28] (SE), spleens: day 0 to 28; for kill rate k[0-56] (SE), spleens: day 0 to 56; for kill rate k[28-56] (SE), spleens: day 28 to 56
[6] = human; cited from earlier work
Mtb Erdman [7] = experiment: Efficacy in lungs of Mtb Erdman-infected C3HeB/FeJ mice (CFU, kill rates); type: in vivo, Mycobacterium tuberculosis; details: for kill rate k[0-28] (SE), lungs, Type I (TI) subset / kill rate k[0-56] (SE), lungs, Type I (TI) subset / kill rate k[28-56] (SE), lungs, Type I (TI) subset: TI lesions; for kill rate k[0-28] (SE), lungs, Type III (TIII) subset / kill rate k[0-56] (SE), lungs, Type III (TIII) subset / kill rate k[28-56] (SE), lungs, Type III (TIII) subset: TIII lesions; for kill rate k[0-28] (SE), lungs: day 0 to 28; for kill rate k[0-56] (SE), lungs: day 0 to 56; for kill rate k[28-56] (SE), lungs: day 28 to 56
[8] = system: non-growing streptomycin-dependent Mtb strain 18b; set-up: method as in PMID 20679505; details: cited from earlier work
[9] = system: intracellular mycobacteria in macrophages; set-up: method as in PMID 19299584; details: cited from earlier work
[10] = Plasma and lesion drug levels by LCM-LC/MS-MS in C3HeB/FeJ mice; details: 100 mg/kg
[11] = system: non-replicating Mtb in rabbit caseum; experiment: Explanted rabbit caseum MBC assay; type: cell-based, Mycobacterium tuberculosis; details: test concentrations up to 512 µM, 7 days
Mtb Erdman [12] = experiment: In vitro kill kinetics under replicating conditions; type: cell-based, Mycobacterium tuberculosis; details: 8× and 20× MIC, CFU/mL over 14 days
[13] = system: Mtb Erdman-infected C3HeB/FeJ mice; experiment: Pulmonary histopathology (pathologist scores and LIRA) in C3HeB/FeJ mice; type: in vivo, mouse
[14] = Mycobacterium tuberculosis, ERDMAN
[15] = Mycobacterium tuberculosis, ERDMAN, read-out: MIC + huSA
[16] = 50 mg/kg QD, 8 weeks of treatment
[17] = 200 mg/kg QD, 8 weeks of treatment
[18] = 200 mg/kg QD, 8 weeks, group average
[19] = 200 mg/kg QD, 8 weeks, mice Mx I to Mx L

CC(=O)NC[C@H]1CN(c2ccc(N3CCOCC3)c(F)c2)C(=O)O1 [linezolid]
MIC (Mtb Erdman [1]; [14]): 1000 ng/mL
MIC (Mtb Erdman [1]; [15]): 1000 ng/mL
sqMBC (Mtb Erdman [2]): > 8 µg/mL

O=C1CCc2c(OC[C@]3(O)CCN(c4c(F)cc(Cl)cc4F)C[C@H]3O)ccc(F)c2N1 [OPC-167832]
MIC (Mtb Erdman [1]; [14]): 0.5 ng/mL
MIC (Mtb Erdman [1]; [15]): 8 ng/mL
shift in MIC in the presence of huSA (Mtb Erdman [1]; physiologic levels (4%) of huSA): 16 fold
average lung CFU reduction compared to untreated controls (Mtb): 3 log10
activity against non-replicating Mtb in rabbit caseum MBC assay [3]: lacked appreciable activity
sqMBC (Mtb Erdman [2]): 0.001 µg/mL
sqMBC + huSA (Mtb Erdman [2]): 0.016 µg/mL

C[C@H]1COC2(CCN(c3nc(=O)c4cc(C(F)(F)F)cc([N+](=O)[O-])c4s3)CC2)O1 [BTZ-043]
drug level in cellular lesion over the serum-shifted MIC [4]: 121 fold
drug level in lung parenchyma over the serum-shifted MIC [4]: 228 fold
drug level in plasma over the serum-shifted MIC [4]: 237 fold
kill rate k[0-28] (SE), spleens (Mtb Erdman [5]; 50 mg/kg QD): 0.048 (0.006) log10CFU per day
kill rate k[0-56] (SE), spleens (Mtb Erdman [5]; 50 mg/kg QD): 0.026 (0.004) log10CFU per day
kill rate k[28-56] (SE), spleens (Mtb Erdman [5]; 50 mg/kg QD): 0.004 (0.007) log10CFU per day
kill rate k[0-28] (SE), spleens (Mtb Erdman [5]; 100 mg/kg QD): 0.046 (0.006) log10CFU per day
kill rate k[0-56] (SE), spleens (Mtb Erdman [5]; 100 mg/kg QD): 0.041 (0.003) log10CFU per day
kill rate k[28-56] (SE), spleens (Mtb Erdman [5]; 100 mg/kg QD): 0.036 (0.006) log10CFU per day
kill rate k[0-28] (SE), spleens (Mtb Erdman [5]; 200 mg/kg QD): 0.057 (0.005) log10CFU per day
kill rate k[0-56] (SE), spleens (Mtb Erdman [5]; 200 mg/kg QD): 0.046 (0.003) log10CFU per day
kill rate k[28-56] (SE), spleens (Mtb Erdman [5]; 200 mg/kg QD): 0.034 (0.006) log10CFU per day
mice with spleen CFU below the lower limit of detection (Mtb Erdman [5]; 200 mg/kg, 8 weeks, limit 1.7 log10 CFU/spleen): 4 out of 8
effect on spleen bacterial load (Mtb Erdman [5]; 4 weeks of treatment, all dose groups, Dunnett's P = 0.003 to 0.0001): statistically significant reductions
effect on spleen burdens (Mtb Erdman [5]; 8 weeks of treatment, Dunnett's P < 0.0001): statistically significant reductions
plasma protein binding [6]: 99.4%
protein binding indicated by serum-shift MIC assay (Mtb Erdman [1]; 4% huSA): ~ 75%
MIC (Mtb Erdman [1]; M. tuberculosis Erdman, 7H9 media): 8 ng/mL
MIC (Mtb Erdman [1]; [14]): 8 ng/mL
MIC (Mtb Erdman [1]; [15]): 30 ng/mL
lung CFU reduction from the start of treatment (Mtb Erdman [7]; [16]): ~ 1.04 log10 CFU
lung CFU reduction versus untreated (Mtb Erdman [7]; [16]): ~ 2.43 log10 CFU
kill rate k[0-28] (SE), lungs, Type I (TI) subset (Mtb Erdman [7]; 50 mg/kg QD): 0.011 (0.010) log10CFU per day
kill rate k[0-56] (SE), lungs, Type I (TI) subset (Mtb Erdman [7]; 50 mg/kg QD): 0.023 (0.008) log10CFU per day
kill rate k[28-56] (SE), lungs, Type I (TI) subset (Mtb Erdman [7]; 50 mg/kg QD): 0.032 (0.015) log10CFU per day
kill rate k[0-28] (SE), lungs, Type III (TIII) subset (Mtb Erdman [7]; 50 mg/kg QD): 0.063 (0.007) log10CFU per day
kill rate k[0-56] (SE), lungs, Type III (TIII) subset (Mtb Erdman [7]; 50 mg/kg QD): 0.039 (0.007) log10CFU per day
kill rate k[28-56] (SE), lungs, Type III (TIII) subset (Mtb Erdman [7]; 50 mg/kg QD): 0.005 (0.010) log10CFU per day
kill rate k[0-28] (SE), lungs (Mtb Erdman [7]; 50 mg/kg QD): 0.022 log10CFU per day and 0.022 (0.018) log10CFU per day
kill rate k[0-56] (SE), lungs (Mtb Erdman [7]; 50 mg/kg QD): 0.019 (0.009) log10CFU per day
kill rate k[28-56] (SE), lungs (Mtb Erdman [7]; 50 mg/kg QD): 0.015 log10CFU per day and 0.015 (0.021) log10CFU per day
kill rate k[0-28] (SE), lungs, Type I (TI) subset (Mtb Erdman [7]; 100 mg/kg QD): 0.011 (0.011) log10CFU per day
kill rate k[0-56] (SE), lungs, Type I (TI) subset (Mtb Erdman [7]; 100 mg/kg QD): 0.047 (0.011) log10CFU per day
kill rate k[28-56] (SE), lungs, Type I (TI) subset (Mtb Erdman [7]; 100 mg/kg QD): 0.078 (0.017) log10CFU per day
kill rate k[0-28] (SE), lungs, Type III (TIII) subset (Mtb Erdman [7]; 100 mg/kg QD): 0.041 (0.007) log10CFU per day
kill rate k[0-56] (SE), lungs, Type III (TIII) subset (Mtb Erdman [7]; 100 mg/kg QD): 0.022 (0.005) log10CFU per day
kill rate k[28-56] (SE), lungs, Type III (TIII) subset (Mtb Erdman [7]; 100 mg/kg QD): 0.003 (0.015) log10CFU per day
kill rate k[0-28] (SE), lungs (Mtb Erdman [7]; 100 mg/kg QD): 0.006 log10CFU per day and 0.006 (0.013) log10CFU per day
kill rate k[0-56] (SE), lungs (Mtb Erdman [7]; 100 mg/kg QD): 0.031 (0.007) log10CFU per day
kill rate k[28-56] (SE), lungs (Mtb Erdman [7]; 100 mg/kg QD): 0.056 log10CFU per day and 0.056 (0.015) log10CFU per day
lung CFU reduction from the start of treatment (Mtb Erdman [7]; [17]): ~ 2.59 log10 CFU
lung CFU reduction versus untreated (Mtb Erdman [7]; [17]): ~ 3.98 log10 CFU
kill rate k[0-28] (SE), lungs, Type I (TI) subset (Mtb Erdman [7]; 200 mg/kg QD): 0.023 (0.011) log10CFU per day
kill rate k[0-56] (SE), lungs, Type I (TI) subset (Mtb Erdman [7]; 200 mg/kg QD): 0.042 (0.009) log10CFU per day
kill rate k[28-56] (SE), lungs, Type I (TI) subset (Mtb Erdman [7]; 200 mg/kg QD): 0.062 (0.014) log10CFU per day
kill rate k[0-28] (SE), lungs, Type III (TIII) subset (Mtb Erdman [7]; 200 mg/kg QD): 0.019 (0.009) log10CFU per day
kill rate k[0-56] (SE), lungs, Type III (TIII) subset (Mtb Erdman [7]; 200 mg/kg QD): 0.049 (0.005) log10CFU per day
kill rate k[28-56] (SE), lungs, Type III (TIII) subset (Mtb Erdman [7]; 200 mg/kg QD): 0.079 (0.015) log10CFU per day
kill rate k[0-28] (SE), lungs (Mtb Erdman [7]; 200 mg/kg QD): 0.005 log10CFU per day and 0.005 (0.010) log10CFU per day
kill rate k[0-56] (SE), lungs (Mtb Erdman [7]; 200 mg/kg QD): 0.046 (0.008) log10CFU per day
kill rate k[28-56] (SE), lungs (Mtb Erdman [7]; 200 mg/kg QD): 0.087 log10CFU per day and 0.087 (0.013) log10CFU per day
effect on lung bacterial load (Mtb Erdman [7]; 4 weeks of treatment, all dose groups (50, 100, 200 mg/kg), Dunnett's P = 0.002 to 0.03): statistically significant reductions
effect on lung bacterial load (Mtb Erdman [7]; 8 weeks of treatment, all dose groups, Dunnett's P < 0.0001): statistically significant reduction
activity against non-growing Mtb strain 18b following depletion of streptomycin [8]: limited activity
deduced MIC against intracellular mycobacteria in macrophages [9]: < 10 ng/mL
drug levels in plasma, lung parenchyma, cellular lesion and cellular-caseum interface relative to serum-shifted MIC ([10]; 2.5 weeks, end of the dosing interval (24 h)): fell below the serum-shifted MIC
drug level in cellular-caseum interface over the serum-shifted MIC ([10]; 5 of 7 days per week for 2.5 weeks, Tmax (1 h)): 93 fold
activity against non-replicating Mtb in rabbit caseum MBC assay [11]: lacked appreciable activity
kill kinetics (cidality) (Mtb Erdman [12]): cidality
percent lung involvement, Healthy Tissue (LIRA), average [13, 18]: 73.70%
percent lung involvement, Type I - Caseum (LIRA), average [13, 18]: 10% and 10.01%
percent lung involvement, Type I - Rim (LIRA), average [13, 18]: 4.85%
percent lung involvement, Type II (LIRA), average [13, 18]: 0%
percent lung involvement, Type III (LIRA), average [13, 18]: 11% and 11.44%
percent lung involvement, Healthy Tissue (LIRA), individual mice [13, 19]: 90.59% and 66.70% and 47.22% and 90.31%
percent lung involvement, Type I - Caseum (LIRA), individual mice [13, 19]: 2.82% and 6.51% and 30.69% and 0.00%
percent lung involvement, Type I - Rim (LIRA), individual mice [13, 19]: 3.75% and 4.76% and 10.89% and 0.00%
percent lung involvement, Type II (LIRA), individual mice [13, 19]: 0.00%
percent lung involvement, Type III (LIRA), individual mice [13, 19]: 2.83% and 22.03% and 11.21% and 9.69%
histology scores by board-certified pathologist ([13]; 200 mg/kg, 8 weeks of treatment, compared to untreated mice): improved overall histology scores
sqMBC (Mtb Erdman [2]): 0.016 µg/mL
sqMBC + huSA (Mtb Erdman [2]): 0.03 µg/mL

Source: publication PMC10648937, “Drug distribution and efficacy of the DprE1 inhibitor BTZ-043 in the C3HeB/FeJ mouse tuberculosis model” (Antimicrobial Agents and Chemotherapy, 2023)
